US20180369087A1, “Hydrogen Peroxide Booster System for Enhanced Teeth Whitening” (Colgate-Palmolive Company, priority 2015, published 2018)

Assay: SNOBS stability in anhydrous formulation, HPLC
Assay type: physicochemical
Settings: for % SNOBS: composition of Table 5
Description: The composition of Table 5 was aged at 40° C. and at room temperature for 8 weeks and 13 weeks respectively. The percentage of SNOBS remaining was quantified by HPLC. The results in Table 6 indicate that there is sufficient SNOBS remaining in the composition after aging at both room temperature and at 40° C. to be efficacious as a booster for the peroxide component in a tooth whitening composition.

% Loss of SNOBS (4 weeks/40° C.): 3.1%
% SNOBS (4 weeks/40° C.): 9.36%
% Loss of SNOBS (8 weeks/40° C.): 6.4%
% SNOBS (8 weeks/40° C.): 8.99%
% Loss of SNOBS (13 weeks/Room Temperature (RT)): 4.06%
% SNOBS (13 weeks/Room Temperature (RT)): 9.21%
% SNOBS (Initial): 9.6%
SMILES: CCCCCCCCC(=O)Oc1ccc(S(=O)(=O)[O-])cc1.[Na+] [SNOBS, sodium nonanoyloxybenzenesulfonate]
